# Measurements taken from ChEMBL document CHEMBL1201862, “PubChem BioAssay data set” (2004).
#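 Method: 48-hour compound exposure of cells in 96-well plates, five concentrations, linear interpolation of endpoints. GI50 = concentration required for 50% inhibition of growth.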 The source made the active and inactive calls. No stated cut-off is given here; in the data, active = GI50 up to about 1.1 µM and inactive = higher.
# Tests used:
# Experiment in all cases: NCI tumour cell line growth inhibition, 48 h
# COLO 205 = test system: COLO 205
# HCC 2998 = test system: HCC 2998
# M14 = test system: M14
# A549 = test system: A549
# CCRF-CEM = test system: CCRF-CEM
# OVCAR-8 = test system: OVCAR-8
# CAKI-1 = test system: CAKI-1
# SK-MEL-5 = test system: SK-MEL-5
# HOP-92 = test system: HOP-92
# NCI-H23 = test system: NCI-H23
# DU-145 = test system: DU-145
# HCT-15 = test system: HCT-15
# SF-539 = test system: SF-539
# RPMI-8226 = test system: RPMI-8226
# T47D = test system: T47D
# HL-60 = test system: HL-60
# SN12C = test system: SN12C
# SK-OV-3 = test system: SK-OV-3
# U-251 = test system: U-251
# 786-0 = test system: 786-0
# HOP-62 = test system: HOP-62
# SNB-75 = test system: SNB-75
# UACC-62 = test system: UACC-62
# UO-31 = test system: UO-31
# A498 = test system: A498
# SR = test system: SR
# NCI/ADR-RES = test system: NCI/ADR-RES
# SW-620 = test system: SW-620
# IGROV-1 = test system: IGROV-1
# OVCAR-3 = test system: OVCAR-3
# PC-3 = test system: PC-3
# KM12 = test system: KM12
# Malme-3M = test system: Malme-3M
# K562 = test system: K562
# MOLT-4 = test system: MOLT-4
# MDA-MB-231 = test system: MDA-MB-231
# LOX IMVI = test system: LOX IMVI
# EKVX = test system: EKVX
# BT-549 = test system: BT-549
# MDA-N = test system: MDA-N
# NCI-H522 = test system: NCI-H522
# SNB-19 = test system: SNB-19
# SF-268 = test system: SF-268
# OVCAR-4 = test system: OVCAR-4
# HCT-116 = test system: HCT-116
# ACHN = test system: ACHN
# HT-29 = test system: HT-29
# NCI-H460 = test system: NCI-H460
# Hs-578T = test system: Hs-578T
# RXF 393 = test system: RXF 393
# TK-10 = test system: TK-10
# MDA-MB-435 = test system: MDA-MB-435
# SK-MEL-2 = test system: SK-MEL-2
# SK-MEL-28 = test system: SK-MEL-28
# SF-295 = test system: SF-295
# NCI-H226 = test system: NCI-H226
# UACC-257 = test system: UACC-257
# MCF7 = test system: MCF7
# OVCAR-5 = test system: OVCAR-5
compound,measurement,setting,value
O=C1C(Cl)=C(Sc2nnc3c4ccccc4c4ccccc4c3n2)C(=O)c2ccccc21,GI50,COLO 205,19.3 µM (inactive)
same,GI50,HCC 2998,32.4 µM (inactive)
same,GI50,M14,15.2 µM (inactive)
same,GI50,A549,24.6 µM (inactive)
same,GI50,CCRF-CEM,3.78 µM (inactive)
same,GI50,OVCAR-8,8.47 µM (inactive)
same,GI50,CAKI-1,17 µM (inactive)
same,GI50,SK-MEL-5,7.8 µM (inactive)
same,GI50,HOP-92,16.9 µM (inactive)
same,GI50,NCI-H23,5 µM (inactive)
same,GI50,DU-145,8.81 µM (inactive)
same,GI50,HCT-15,19 µM
same,GI50,SF-539,16.1 µM (inactive)
same,GI50,RPMI-8226,13.7 µM (inactive)
same,GI50,T47D,6.24 µM (inactive)
same,GI50,HL-60,2.74 µM (inactive)
same,GI50,SN12C,16.6 µM (inactive)
same,GI50,SK-OV-3,21.6 µM (inactive)
same,GI50,U-251,13.3 µM (inactive)
same,GI50,786-0,16.4 µM (inactive)
same,GI50,HOP-62,16.7 µM (inactive)
same,GI50,SNB-75,2.97 µM (inactive)
same,GI50,UACC-62,15.8 µM (inactive)
same,GI50,UO-31,14.1 µM (inactive)
same,GI50,A498,20.3 µM (inactive)
same,GI50,SR,7.43 µM (inactive)
same,GI50,NCI/ADR-RES,25.5 µM (inactive)
same,GI50,SW-620,23.1 µM (inactive)
same,GI50,IGROV-1,1.08 µM (active)
same,GI50,OVCAR-3,14 µM (inactive)
same,GI50,PC-3,19 µM (inactive)
same,GI50,KM12,14.8 µM (inactive)
same,GI50,Malme-3M,3.26 µM (inactive)
same,GI50,K562,21.1 µM (inactive)
same,GI50,MOLT-4,13.9 µM (inactive)
same,GI50,MDA-MB-231,3.51 µM (inactive)
same,GI50,LOX IMVI,4.57 µM (inactive)
same,GI50,EKVX,17.6 µM (inactive)
same,GI50,BT-549,17.8 µM (inactive)
same,GI50,MDA-N,1.92 µM (inactive)
same,GI50,NCI-H522,15.2 µM (inactive)
same,GI50,SNB-19,18.7 µM (inactive)
same,GI50,SF-268,27.5 µM (inactive)
same,GI50,OVCAR-4,14.7 µM (inactive)
same,GI50,HCT-116,16 µM (inactive)
same,GI50,ACHN,15.7 µM (inactive)
same,GI50,HT-29,25.1 µM (inactive)
same,GI50,NCI-H460,17.8 µM (inactive)
same,GI50,Hs-578T,34.3 µM (inactive)
same,GI50,RXF 393,17.1 µM (inactive)
same,GI50,TK-10,22 µM (inactive)
same,GI50,MDA-MB-435,1.85 µM (inactive)
same,GI50,SK-MEL-2,16.6 µM (inactive)
same,GI50,SK-MEL-28,21.8 µM (inactive)
same,GI50,SF-295,10.8 µM (inactive)
same,GI50,NCI-H226,19.3 µM (inactive)
same,GI50,UACC-257,16.3 µM (inactive)
same,GI50,MCF7,12.6 µM (inactive)
same,GI50,OVCAR-5,23.2 µM (inactive)
O=C(CC(Cc1ccccc1)c1ccc(Oc2ccccc2)cc1)Nc1cccc(Cl)c1 (configuration not stated),GI50,COLO 205,6 µM (inactive)
same,GI50,HCC 2998,3.27 µM (inactive)
same,GI50,M14,4.88 µM (inactive)
same,GI50,A549,3.9 µM (inactive)
same,GI50,CCRF-CEM,3.49 µM (inactive)
same,GI50,OVCAR-8,3.96 µM (inactive)
same,GI50,CAKI-1,3.66 µM (inactive)
same,GI50,SK-MEL-5,11.3 µM (inactive)
same,GI50,HOP-92,1.9 µM (inactive)
same,GI50,NCI-H23,3.35 µM (inactive)
same,GI50,DU-145,5.43 µM (inactive)
same,GI50,HCT-15,3.64 µM
same,GI50,SF-539,26.1 µM (inactive)
same,GI50,RPMI-8226,3.72 µM (inactive)
same,GI50,T47D,2.92 µM (inactive)
same,GI50,HL-60,3.02 µM (inactive)
same,GI50,SN12C,4.22 µM (inactive)
same,GI50,SK-OV-3,5.46 µM (inactive)
same,GI50,U-251,3.95 µM (inactive)
same,GI50,786-0,5.43 µM (inactive)
same,GI50,HOP-62,3.83 µM (inactive)
same,GI50,SNB-75,6.73 µM (inactive)
same,GI50,UACC-62,3.04 µM (inactive)
same,GI50,UO-31,4.24 µM (inactive)
same,GI50,A498,4.47 µM (inactive)
same,GI50,SR,4.94 µM (inactive)
same,GI50,NCI/ADR-RES,3.62 µM (inactive)
same,GI50,SW-620,4.42 µM (inactive)
same,GI50,IGROV-1,2.9 µM (inactive)
same,GI50,OVCAR-3,3.86 µM (inactive)
same,GI50,PC-3,3.7 µM (inactive)
same,GI50,KM12,3.29 µM (inactive)
same,GI50,Malme-3M,15 µM (inactive)
same,GI50,K562,3.34 µM (inactive)
same,GI50,MOLT-4,3.69 µM (inactive)
same,GI50,MDA-MB-231,10.8 µM (inactive)
same,GI50,LOX IMVI,3.73 µM (inactive)
same,GI50,EKVX,4.4 µM (inactive)
same,GI50,BT-549,7.67 µM (inactive)
same,GI50,MDA-N,4.47 µM (inactive)
same,GI50,NCI-H522,3.1 µM (inactive)
same,GI50,SNB-19,4.5 µM (inactive)
same,GI50,SF-268,19.2 µM (inactive)
same,GI50,OVCAR-4,6.03 µM (inactive)
same,GI50,HCT-116,3.6 µM (inactive)
same,GI50,ACHN,3.65 µM (inactive)
same,GI50,HT-29,5.79 µM (inactive)
same,GI50,NCI-H460,3.83 µM (inactive)
same,GI50,Hs-578T,7.85 µM (inactive)
same,GI50,RXF 393,5.41 µM (inactive)
same,GI50,TK-10,10 µM (inactive)
same,GI50,MDA-MB-435,4.32 µM (inactive)
same,GI50,SK-MEL-2,3.56 µM (inactive)
same,GI50,SK-MEL-28,9.16 µM (inactive)
same,GI50,SF-295,3.24 µM (inactive)
same,GI50,NCI-H226,7.48 µM (inactive)
same,GI50,UACC-257,11 µM (inactive)
same,GI50,MCF7,3.42 µM (inactive)
same,GI50,OVCAR-5,28.6 µM (inactive)
NC(CCC(=O)NC(CSCC1C(=O)Nc2ccccc21)C(=O)NCC(=O)O)C(=O)O (configuration not stated),GI50,COLO 205,5.12 µM (inactive)
same,GI50,HCC 2998,5.75 µM (inactive)
same,GI50,M14,5.21 µM (inactive)
same,GI50,A549,7.43 µM (inactive)
same,GI50,CCRF-CEM,5.27 µM (inactive)
same,GI50,OVCAR-8,6.15 µM (inactive)
same,GI50,CAKI-1,4.41 µM (inactive)
same,GI50,SK-MEL-5,14.8 µM (inactive)
same,GI50,HOP-92,4.16 µM (inactive)
same,GI50,NCI-H23,5.41 µM (inactive)
same,GI50,DU-145,6.17 µM (inactive)
same,GI50,HCT-15,4.72 µM
same,GI50,SF-539,6 µM (inactive)
same,GI50,RPMI-8226,2.02 µM (inactive)
same,GI50,T47D,9.4 µM (inactive)
same,GI50,HL-60,23.6 µM (inactive)
same,GI50,SN12C,5.86 µM (inactive)
same,GI50,SK-OV-3,21 µM (inactive)
same,GI50,U-251,7.62 µM (inactive)
same,GI50,786-0,3.87 µM (inactive)
same,GI50,HOP-62,11.9 µM (inactive)
same,GI50,SNB-75,2.67 µM (inactive)
same,GI50,UACC-62,8.32 µM (inactive)
same,GI50,UO-31,0.466 µM (active)
same,GI50,A498,13.8 µM (inactive)
same,GI50,SR,0.386 µM (active)
same,GI50,NCI/ADR-RES,7.53 µM (inactive)
same,GI50,SW-620,4.28 µM (inactive)
same,GI50,IGROV-1,5.52 µM (inactive)
same,GI50,OVCAR-3,5.62 µM (inactive)
same,GI50,PC-3,21.6 µM (inactive)
same,GI50,KM12,9.82 µM (inactive)
same,GI50,Malme-3M,6.3 µM (inactive)
same,GI50,K562,1.6 µM (inactive)
same,GI50,MOLT-4,5.35 µM (inactive)
same,GI50,MDA-MB-231,7.53 µM (inactive)
same,GI50,LOX IMVI,1.21 µM (inactive)
same,GI50,EKVX,11.9 µM (inactive)
same,GI50,BT-549,6.79 µM (inactive)
same,GI50,MDA-N,6.37 µM (inactive)
same,GI50,NCI-H522,0.968 µM (active)
same,GI50,SNB-19,44.3 µM (inactive)
same,GI50,SF-268,5.92 µM (inactive)
same,GI50,OVCAR-4,8.41 µM (inactive)
same,GI50,HCT-116,4.89 µM (inactive)
same,GI50,ACHN,7.41 µM (inactive)
same,GI50,HT-29,6.78 µM (inactive)
same,GI50,NCI-H460,14.8 µM (inactive)
same,GI50,Hs-578T,48 µM (inactive)
same,GI50,RXF 393,0.855 µM (active)
same,GI50,TK-10,7.52 µM (inactive)
same,GI50,MDA-MB-435,6.31 µM (inactive)
same,GI50,SK-MEL-2,9.53 µM (inactive)
same,GI50,SK-MEL-28,6.58 µM (inactive)
same,GI50,SF-295,15.5 µM (inactive)
same,GI50,NCI-H226,7.23 µM (inactive)
same,GI50,UACC-257,8.11 µM (inactive)
same,GI50,MCF7,3.75 µM (inactive)
same,GI50,OVCAR-5,12.4 µM (inactive)
